Assay results as given in patent publication US20230095509A1, “NON-FIBRILLAR HEMOGLOBIN S OLIGOMERS AND METHODS TO IDENTIFY MODULATORS OF HEMOGLOBIN S POLYMERIZATION” (REGENTS OF THE UNIVERSITY OF MINNESOTA, priority 2021, published 2023).

Columns and labels:
[1] = system: RBC from individuals with SCD (genotype HbSS); assay: Microfluidic measurement of oxygen-dependent sickle blood flow; type: cell-based, human; settings: for area under the velocity response curve (AUC) relative to control / deceleration rate of blood during deoxygenation: 500 μM, RBC at 25% hematocrit, 7 individuals with SCD, 1 hour at 37° C.; for deceleration rate of blood during deoxygenation: FIG. 8C
Description: We treated RBC suspensions at 25% hematocrit from 7 individuals with SCD (genotype HbSS) with 500 μM of our hit compounds or voxelotor (positive control) and quantified the flow in our microfluidic platform under well-defined oxygen tensions. (FIG. 8A) Representative image of blood flowing in microfluidic device with overlay of arrows representing the velocities of features between frames using the Lucas Kanade Tomasi algorithm. (FIG. 8B) Area under velocity response curve (AUC) comparison among treated samples compared to the vehicle control. (FIG. 8C) Deceleration rate comparison among treated samples compared to the vehicle control. All statistics were performed using a one-tailed Wilcoxon signed rank test, a=0.05, * p-value<0.05, **p-value<0.01
(FIG. 9A) Raw oxygen and velocity recordings during microfluidic experiment. Arrow indicates the change in the steady state mean velocity after introducing hypoxic conditions on the microfluidic chip. (FIG. 9B) The on-chip oxygen concentration is cycled seven times during the experiment between 21% 02 and hypoxia. Changes in the velocity during each cycle are normalized to the average velocity of the initial 21% cycle. (FIG. 9C) Shaded region represents the area under the curve (AUC) using the steady state mean velocity changes at each oxygen concentration. This measurement quantifies the overall oxygen response of the blood by accounting for both the magnitude of the steady state mean velocity drop as well as the persistence of oxygen-dependence at higher oxygen concentrations (FIG. 9D) Blood deceleration is measured by a segmented moving mean of the velocity response during the hypoxic transition using Matlab signal processing.
Blood Sample Collection and Preparation for Microfluidic Assays: Sickle cell patient blood samples were collected under protocols approved by the Institutional Review Boards at Children's Minnesota Hospital, the University of Minnesota Medical Center, and the University of Minnesota. Patient blood samples were collected into sodium citrate vacutainer tubes and stored at 4° C. The samples were prepared for the microfluidic experiments by washing twice with Dulbecco's phosphate buffered saline (DPBS) after centrifugation for 5 minutes at 400g. Packed red blood cells were then isolated by centrifuging the washed samples for 10 minutes at 400g and removing all remaining DPBS. The packed red blood cells were added to fresh DPBS to achieve a target hematocrit of 25%. Each compound of interest was added to the sample to reach a target concentration of 500 uM and incubated at 37° C. for 1 hour before being run on the microfluidic device. The compounds were dissolved in DMSO at a concentration of 100 mM and stored at −20° C. or −80° C. prior to use.
Microfluidic Setup and Experimental Protocol: A previously described (Valdez et al., 2019, APL Bioengineering 3, 046101; Geisness et al., 2022, Haematologica, 107(6); Hansen et al., 2020, Br J Haematol, (2019). Br J Haematol. 188(6): 985-993), polydimethylsiloxane (PDMS) microfluidic device replicating the geometry of the post-capillary venules was used to study blood rheological behavior. […] The microfluidic channels were primed by flowing a 2% bovine serum albumin (BSA) in DPBS solution through the device to passivate the PDMS surface. Blood was then added to the inlet port and flowed through the device under a constant driving pressure to achieve an initial velocity of […] (PCD-15PSIG, Alicat Scientific). At the bifurcation, blood is diverted to two […] square channels—a bypass channel and an experimental channel. Separate gas inlets supply oxygen to each of the two blood channels independently via diffusion from the overlaid gas layer. The bypass channel is supplied with air and maintained under normoxic conditions. […]

[2] = molecular target: deoxy-HbS oligomers (sickle hemoglobin, HbS) (Homo sapiens, UniProt P68871+P69905, E7V); assay: Dynamic light scattering (DLS) of deoxy-HbS oligomers at sub-nucleating concentration; type: biochemical; settings: HbS 25 μM; for size of deoxyHbS oligomers (DLS effective diameter) relative to control: hit compounds 100 μM, two hours at room temperature, degassed with argon, FIG. 4C
Description: (FIG. 4A) Pilot screening with LOPAC library. Compounds that reduced the FRET efficiency below 3SD (black line) were selected for further characterization. […] Fluorescently labeled HbS samples were plated in a 1536 plate and treated separately with DMSO or the three hit compounds, chlormezanone, gabazine, and phosphoramidon disodium, in a dose-dependent manner from 0.1 to 1000 μM for 2 hours at room temperature and then vacuum degassed for 10 minutes, and then donor lifetimes were measured using a fluorescence plate reader. […] HbS samples (25 μM) were incubated separately with hit compounds (100 μM) or DMSO only for two hours at room temperature and degassed with argon for five minutes, and then DLS measurement were taken at room temperature. […] Effect of hit compounds on polymerization of deoxyHbS in high potassium phosphate buffer. Curves represent growth of polymer as a function of time in the presence or absence of drug.

Which results are given for `COc1ccc(-c2ccc(=N)n(CCCC(=O)O)n2)cc1` [gabazine]?
area under the velocity response curve (AUC) relative to control [1]: insignificant trend towards reduced AUC; deceleration rate of blood during deoxygenation [1]: significantly reduced the deceleration rate; size of deoxyHbS oligomers (DLS effective diameter) relative to control [2]: significantly decreased the oligomer size

With `CN1C(=O)CCS(=O)(=O)C1c1ccc(Cl)cc1` (stereo not shown) [chlormezanone] as the compound, how does the “area under the velocity response curve (AUC) relative to control” value [1] read?
Its value is “significantly reduced the mean AUC”.

And the “deceleration rate of blood during deoxygenation” value [1]?
Its value is “significantly reduced the deceleration rate”.

And the “size of deoxyHbS oligomers (DLS effective diameter) relative to control” value [2]?
The value was “significantly decreased the oligomer size”.

Which “modification of the hemoglobin” value ([1]; 500 μM at 25% hematocrit, assuming complete RBC partitioning and 30-36 g/dl intracellular hemoglobin) does the source give for `CC(C)n1nccc1-c1ncccc1COc1cccc(O)c1C=O` [voxelotor] here?
The value was 35-45%.

And the “area under the velocity response curve (AUC) relative to control” value [1]?
Its value is “significantly reduced the mean AUC”.

What about the “deceleration rate of blood during deoxygenation” value [1] of the same compound?
Its value is “significantly reduced the deceleration rate”.

And the “mean oligomer size of deoxyHbS (DLS effective diameter)” value ([2]; degassed with argon 5 minutes, room temperature, FIG. 1A)?
Its value is “dramatically reduced the mean oligomer size”.
